One experiment relates to Plasmodium falciparum. The experiment is described as follows: Antimalarial activity against Plasmodium falciparum 3D7 infected in RBC cells assessed as inhibition of parasite growth incubated for 48 hrs by [3H]hypoxanthine incorporation assay. It counts as functional, organism-based.
Experiment [1] deals with T1, IMP-specific 5'-nucleotidase 1 (Plasmodium falciparum (isolate 3D7)) (UniProt A0A144A134).
T1 sequence (whole entry): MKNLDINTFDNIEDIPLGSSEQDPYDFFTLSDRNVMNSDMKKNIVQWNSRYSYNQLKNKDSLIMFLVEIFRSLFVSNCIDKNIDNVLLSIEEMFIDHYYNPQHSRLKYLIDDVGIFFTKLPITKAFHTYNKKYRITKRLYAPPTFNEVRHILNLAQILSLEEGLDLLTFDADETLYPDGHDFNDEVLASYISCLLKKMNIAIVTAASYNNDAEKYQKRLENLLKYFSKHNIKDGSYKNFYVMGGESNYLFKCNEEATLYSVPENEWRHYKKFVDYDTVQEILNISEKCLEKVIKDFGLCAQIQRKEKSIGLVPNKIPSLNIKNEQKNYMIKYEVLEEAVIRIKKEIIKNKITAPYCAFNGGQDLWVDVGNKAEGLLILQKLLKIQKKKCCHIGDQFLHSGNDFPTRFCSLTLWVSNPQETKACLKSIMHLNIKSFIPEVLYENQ
The experiment is described as follows: Binding affinity to recombinant Plasmodium falciparum 3D7 ISN1 assessed as change in melting temperature at 1 uM by differential scanning fluorimetry method.

The target of experiment [2] is T1, IMP-specific 5'-nucleotidase 1 (Plasmodium falciparum (isolate 3D7)). As to the kind of experiment: Binding affinity to recombinant Plasmodium falciparum 3D7 ISN1 assessed as change in melting temperature at 10 uM by differential scanning fluorimetry method. For orientation: In DSF a fluorescence change marks the thermal transition of the protein.
Experiment [3] has the same target. As to the kind of experiment: Binding affinity to recombinant Plasmodium falciparum 3D7 ISN1 assessed as change in melting temperature at 100 uM by differential scanning fluorimetry method.
Experiment [4] has as its target T2, IMP-specific 5'-nucleotidase 1 (Plasmodium falciparum (isolate 3D7), UniProt A0A144A134).
T2 sequence (A0A144A134 whole entry): T1 sequence (whole entry)
As to the kind of experiment: Binding affinity to recombinant Plasmodium falciparum 3D7 ISN1 assessed as dissociation constant by thermophoresis analysis.

Where [5] appears, read: Plasmodium falciparum, 3D7, Erythrocyte.

As for `Nc1nc2c(ncn2[C@H]2CC[C@](O)(CP(=O)(O)O)C2)c(=O)[nH]1`, the IC50 (in general, the point on the concentration scale where inhibition reaches its midpoint) with Plasmodium falciparum (setting [5]) was 42 µM.
With `Nc1nc2c(ncn2[C@@H]2CC[C@](O)(CP(=O)(O)O)C2)c(=O)[nH]1`, the IC50 with Plasmodium falciparum (setting [5]) turned out to be 1.3 µM.
Same read-out and setting: the figure for `Nc1nc2c(ncn2[C@@H]2CC[C@@](O)(CP(=O)(O)O)C2)c(=O)[nH]1` is above 100 µM.
Turning to `Nc1nc2c(ncn2[C@H]2CC[C@@](O)(CP(=O)(O)O)C2)c(=O)[nH]1`, the IC50 with Plasmodium falciparum (rbc) worked out at 44 µM.
As to `Nc1ncnc2c1ncn2[C@H]1CC[C@@](O)(CP(=O)(O)O)C1`, in the experiment with Plasmodium falciparum (setting [5]), the IC50 turned out to be 14.7 µM.
Still for that read-out and setting: the same measure for `COC1NC(N)=Nc2c1ncn2[C@H]1CC[C@@](O)(CCP(=O)(O)O)C1` (mixture of isomers): 10.2 µM.
Consider `Nc1nc2c(ncn2[C@H]2C=C[C@@](O)(CP(=O)(O)O)C2)c(=O)[nH]1` (racemic), for which the ΔTm (commonly the change in melting temperature against a reference sample) in experiment [1] was -0.9 °C; in experiment [2], 1.1 °C; in experiment [3], 4.1 °C. Also, in experiment [4], the Kd (in general, the concentration at which binding is half-saturated) is 19.5 µM. Also, in the experiment with Plasmodium falciparum (setting [5]), the IC50 was 1 µM.
For `Nc1nc2c(ncn2[C@@H]2CC(CP(=O)(O)O)=C[C@H]2O)c(=O)[nH]1` (racemic), the IC50 in the experiment on Plasmodium falciparum (setting [5]) was above 100 µM.
Still for that read-out and setting: the same measure for `O=P(O)(O)C[C@]1(O)CC[C@H](n2cnc3c(NCc4ccccc4)nc(Cl)nc32)C1` (racemic): 68.3 µM; for `Nc1nc2c(ncn2[C@H]2CC[C@@](O)(/C=C/P(=O)(O)O)C2)c(=O)[nH]1` (racemic): 50 µM.
The same measure, in the same setting: the figure for `Nc1nc2c(ncn2[C@H]2CC[C@@](O)(CCP(=O)(O)O)C2)c(=O)[nH]1` (racemic) is 7 µM.
Same read-out and setting: the same measure for `O=P(O)(O)C[C@]1(O)CC[C@H](n2cnc3c(NCc4ccccc4)nc(NCc4ccccc4)nc32)C1` (racemic): 41 µM.
`Nc1ncnc2c1ncn2[C@@H]1CC(CP(=O)(O)O)=C[C@H]1O` (racemic): the IC50 with Plasmodium falciparum (setting [5]) is above 100 µM.
Turning to `Nc1nc2c(ncn2[C@H]2CC[C@@](O)(CP(=O)(O)O)C2)c(=O)[nH]1` (racemic) [listing 1 of 2 here], the Kd in experiment [4] was found to be 24.1 µM. In addition, the IC50 in the experiment on Plasmodium falciparum (rbc) came out at 4.4 µM.
For `Nc1nc(N)c2ncn([C@H]3CC[C@@](O)(CP(=O)(O)O)C3)c2n1` (racemic), in the experiment with Plasmodium falciparum (setting [5]), the IC50 came to 8.8 µM.
As for `COc1nc(N)c2ncn([C@H]3CC[C@@](O)(CP(=O)(O)O)C3)c2n1` (racemic), the IC50 in the experiment with Plasmodium falciparum (setting [5]) turned out to be 2.2 µM.
The same measure, in the same setting: the figure for `COc1nc(Cl)nc2c1ncn2[C@H]1CC[C@@](O)(CP(=O)(O)O)C1` (racemic) is above 100 µM; for `Nc1ncnc2c1ncn2[C@H]1CC[C@@](O)(/C=C/P(=O)(O)O)C1` (racemic) it is above 100 µM.
Same read-out and setting: the figure for `Nc1nc(NCc2ccccc2)c2ncn([C@H]3CC[C@@](O)(CP(=O)(O)O)C3)c2n1` (racemic) is 79 µM.
As to `Nc1nc2c(ncn2[C@H]2CC[C@@](O)(CP(=O)(O)O)C2)c(=O)[nH]1` (racemic) [listing 2 of 2 here], the results for the ΔTm in experiment [1], in experiment [2] and in experiment [3] were -2 °C, -4.5 °C and -5.2 °C, respectively.

The values are drawn from ChEMBL document CHEMBL5625168, “Purine containing carbonucleoside phosphonate analogues as novel chemotype for Plasmodium falciparum Inhibition” (Eur J Med Chem, 2023).
